Test results reported in patent US9492471B2, “Methods of treating a disease or disorder associated with Bruton'S Tyrosine Kinase” (Celgene Avilomics Research, Inc., priority 2013, dated 2016).
Like-named read-outs stand apart in the source and are kept apart here.

Columns and labels:
Experiment in all cases: HotSpot kinase profiling
Assay type in all cases: biochemical
TTBK1 = target: T1, TTBK1 (Homo sapiens, UniProt Q5TCY1)
T1 construct: purchased Reaction Biology Corp
Protocol: (§1) The binding assay system for profiling kinase activity were based upon HotSpot technology (Reaction Biology Corp.; Malvern, Pa., USA) and utilized radio-isotope-based P81 filtration. […] Substrates for the various kinases tested against Compound 2 (substrate information available on the Reaction Biology Corp. website) were prepared fresh daily in Reaction Buffer. Any required cofactors were then added to the substrate solution. The identification and selection of the appropriate cofactor for each kinase is within the ability of a person skilled in the art. See, for example, Handbook of Assay Development in Drug Discovery, Ed. Lisa K. Minor, 2006: CRC Press, Boca Raton, Fla.; Gao et al., “A broad activity screen in support of a chemogenomic map for kinase signalling research and drug discovery,” Biochem J. 2013, 451(2): 313-28; and Eglen et al., “Drug discovery and the human kinome: Recent trends,” Pharmacology & Therapeutics 2011, 130(2): 144-156. The kinase was then added to the substrate solution and gently mixed. […] This was followed by incubation at room temperature for 2 h. The reaction was terminated and any unreacted phosphate was washed away using 0.1% phosphoric acid prior to detection utilizing a proprietary technology. […] DMSO was used as the negative control.
(§2) Percent inhibition was expressed as an average where the assay was performed more than once, e.g., in duplicate.

MINK/MINK1 = target: T2, MINK/MINK1 (Homo sapiens, UniProt Q8N4C8)
T2 construct: purchased Reaction Biology Corp
Protocol: as §1, §2

JAK1 = target: T3, JAK1 (Homo sapiens, UniProt P23458)
T3 construct: purchased Reaction Biology Corp
Protocol: as §1, §2

GCK/MAP4K2 = target: T4, GCK/MAP4K2 (Homo sapiens, UniProt Q12851)
T4 construct: purchased Reaction Biology Corp
T4 sequence (Q12851 1-820): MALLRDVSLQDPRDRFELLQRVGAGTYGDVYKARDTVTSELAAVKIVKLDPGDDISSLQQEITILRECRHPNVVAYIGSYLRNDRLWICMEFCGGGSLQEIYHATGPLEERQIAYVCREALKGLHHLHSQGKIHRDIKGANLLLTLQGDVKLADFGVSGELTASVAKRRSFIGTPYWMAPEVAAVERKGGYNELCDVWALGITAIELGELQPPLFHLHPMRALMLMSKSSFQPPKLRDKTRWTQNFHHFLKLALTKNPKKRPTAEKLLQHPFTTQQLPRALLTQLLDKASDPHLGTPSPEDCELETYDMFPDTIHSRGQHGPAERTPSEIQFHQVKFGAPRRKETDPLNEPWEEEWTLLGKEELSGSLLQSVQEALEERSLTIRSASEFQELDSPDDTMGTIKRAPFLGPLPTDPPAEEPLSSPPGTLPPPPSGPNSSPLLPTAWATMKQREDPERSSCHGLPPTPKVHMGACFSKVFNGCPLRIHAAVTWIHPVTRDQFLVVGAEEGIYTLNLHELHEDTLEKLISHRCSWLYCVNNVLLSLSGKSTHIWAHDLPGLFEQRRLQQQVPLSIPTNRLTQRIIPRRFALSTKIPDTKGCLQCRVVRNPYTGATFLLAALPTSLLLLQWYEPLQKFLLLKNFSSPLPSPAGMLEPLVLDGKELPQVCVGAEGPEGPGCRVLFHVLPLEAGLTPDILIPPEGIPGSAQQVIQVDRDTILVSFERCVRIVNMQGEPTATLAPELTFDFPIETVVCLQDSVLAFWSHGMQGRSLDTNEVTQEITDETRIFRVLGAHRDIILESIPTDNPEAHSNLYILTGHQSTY
Protocol: as §1, §2

GRK2 = target: T5, GRK2 (Homo sapiens, UniProt P25098)
T5 construct: purchased Reaction Biology Corp
T5 sequence (P25098 1-689): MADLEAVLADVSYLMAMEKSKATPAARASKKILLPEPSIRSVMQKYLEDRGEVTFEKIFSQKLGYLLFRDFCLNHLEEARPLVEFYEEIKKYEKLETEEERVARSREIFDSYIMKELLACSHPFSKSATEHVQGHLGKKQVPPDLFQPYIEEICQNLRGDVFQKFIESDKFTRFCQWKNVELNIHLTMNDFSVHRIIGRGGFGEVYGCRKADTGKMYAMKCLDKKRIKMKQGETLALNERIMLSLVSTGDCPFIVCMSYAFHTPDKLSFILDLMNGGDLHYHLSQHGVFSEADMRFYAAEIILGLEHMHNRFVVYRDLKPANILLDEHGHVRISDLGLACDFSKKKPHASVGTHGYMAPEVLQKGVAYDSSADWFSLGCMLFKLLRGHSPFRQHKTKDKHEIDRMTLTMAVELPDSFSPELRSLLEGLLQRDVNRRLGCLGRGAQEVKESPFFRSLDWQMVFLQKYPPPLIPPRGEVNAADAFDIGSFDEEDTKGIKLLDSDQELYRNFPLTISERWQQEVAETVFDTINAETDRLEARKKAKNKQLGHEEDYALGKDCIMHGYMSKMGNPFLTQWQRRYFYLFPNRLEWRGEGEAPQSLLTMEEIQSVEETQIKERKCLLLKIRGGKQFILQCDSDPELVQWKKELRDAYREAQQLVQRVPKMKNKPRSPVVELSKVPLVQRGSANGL
Protocol: as §1, §2

[1] = read-out: % Enzyme Activity (relative to DMSO controls) Run 1
[2] = read-out: % Enzyme Activity (relative to DMSO controls) Run 2

T2 sequence (Q8N4C8 whole entry): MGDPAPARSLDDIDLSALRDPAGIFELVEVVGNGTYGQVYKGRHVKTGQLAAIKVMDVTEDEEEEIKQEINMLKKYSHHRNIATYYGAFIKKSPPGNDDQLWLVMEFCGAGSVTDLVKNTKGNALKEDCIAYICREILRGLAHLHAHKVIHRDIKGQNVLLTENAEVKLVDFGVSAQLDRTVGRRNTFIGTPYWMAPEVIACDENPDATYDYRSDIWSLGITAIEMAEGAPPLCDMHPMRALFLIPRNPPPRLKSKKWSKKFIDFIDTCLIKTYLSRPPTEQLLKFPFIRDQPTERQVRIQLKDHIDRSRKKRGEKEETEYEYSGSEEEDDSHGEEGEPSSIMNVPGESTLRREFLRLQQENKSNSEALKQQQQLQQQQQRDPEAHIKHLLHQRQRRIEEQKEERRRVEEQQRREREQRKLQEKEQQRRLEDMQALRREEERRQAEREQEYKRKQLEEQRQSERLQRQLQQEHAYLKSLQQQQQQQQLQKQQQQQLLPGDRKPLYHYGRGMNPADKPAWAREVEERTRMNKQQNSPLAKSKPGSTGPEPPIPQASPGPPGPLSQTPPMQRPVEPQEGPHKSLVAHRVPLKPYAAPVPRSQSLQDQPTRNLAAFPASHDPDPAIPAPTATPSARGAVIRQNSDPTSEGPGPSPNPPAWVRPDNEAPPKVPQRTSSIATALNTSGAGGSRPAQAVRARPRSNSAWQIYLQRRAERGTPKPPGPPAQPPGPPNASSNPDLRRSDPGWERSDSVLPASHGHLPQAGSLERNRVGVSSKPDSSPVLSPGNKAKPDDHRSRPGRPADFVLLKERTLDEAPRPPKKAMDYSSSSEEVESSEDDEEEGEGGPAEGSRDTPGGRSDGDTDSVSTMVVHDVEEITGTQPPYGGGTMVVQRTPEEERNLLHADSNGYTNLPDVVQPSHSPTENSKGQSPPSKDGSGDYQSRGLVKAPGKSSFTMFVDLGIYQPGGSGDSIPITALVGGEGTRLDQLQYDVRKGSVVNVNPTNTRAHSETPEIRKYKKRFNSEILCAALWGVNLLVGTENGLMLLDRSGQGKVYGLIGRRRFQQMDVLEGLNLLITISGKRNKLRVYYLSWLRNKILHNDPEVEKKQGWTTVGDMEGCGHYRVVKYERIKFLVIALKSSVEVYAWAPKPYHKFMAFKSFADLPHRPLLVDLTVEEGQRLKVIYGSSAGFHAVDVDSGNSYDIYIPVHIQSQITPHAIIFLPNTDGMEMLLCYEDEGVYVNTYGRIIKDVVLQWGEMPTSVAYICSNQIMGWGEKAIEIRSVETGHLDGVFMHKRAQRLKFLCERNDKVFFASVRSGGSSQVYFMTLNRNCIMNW
T3 sequence (P23458 whole entry): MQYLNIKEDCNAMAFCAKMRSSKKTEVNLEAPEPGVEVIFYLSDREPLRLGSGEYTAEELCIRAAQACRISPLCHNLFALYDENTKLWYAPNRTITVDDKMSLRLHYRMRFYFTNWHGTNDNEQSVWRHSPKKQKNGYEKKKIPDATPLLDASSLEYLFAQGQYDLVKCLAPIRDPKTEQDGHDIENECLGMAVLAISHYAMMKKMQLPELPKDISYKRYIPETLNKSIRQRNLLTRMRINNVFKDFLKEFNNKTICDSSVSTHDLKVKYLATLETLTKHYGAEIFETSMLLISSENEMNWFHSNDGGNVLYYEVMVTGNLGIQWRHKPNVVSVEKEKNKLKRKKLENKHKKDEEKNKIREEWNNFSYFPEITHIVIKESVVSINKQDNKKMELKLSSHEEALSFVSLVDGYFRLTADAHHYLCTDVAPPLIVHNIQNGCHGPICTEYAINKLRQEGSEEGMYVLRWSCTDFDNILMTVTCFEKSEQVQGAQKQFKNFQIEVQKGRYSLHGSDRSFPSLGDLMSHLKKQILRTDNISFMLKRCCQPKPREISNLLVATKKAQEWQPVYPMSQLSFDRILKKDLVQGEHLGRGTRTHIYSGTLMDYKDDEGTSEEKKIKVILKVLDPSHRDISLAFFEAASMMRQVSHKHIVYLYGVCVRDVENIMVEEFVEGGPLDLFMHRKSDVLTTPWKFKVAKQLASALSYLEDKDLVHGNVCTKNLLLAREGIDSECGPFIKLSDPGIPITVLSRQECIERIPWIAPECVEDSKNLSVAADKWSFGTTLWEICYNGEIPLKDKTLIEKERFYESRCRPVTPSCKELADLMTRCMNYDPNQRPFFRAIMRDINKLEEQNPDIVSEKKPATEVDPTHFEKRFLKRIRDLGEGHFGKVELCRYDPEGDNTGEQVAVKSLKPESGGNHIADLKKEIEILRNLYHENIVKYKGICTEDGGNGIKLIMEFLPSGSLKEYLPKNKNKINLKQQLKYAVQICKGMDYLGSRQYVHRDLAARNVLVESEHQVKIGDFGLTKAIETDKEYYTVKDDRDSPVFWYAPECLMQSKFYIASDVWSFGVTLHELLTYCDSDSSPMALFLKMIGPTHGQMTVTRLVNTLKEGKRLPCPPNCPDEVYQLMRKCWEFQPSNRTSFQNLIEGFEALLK
T1 sequence (Q5TCY1 whole entry): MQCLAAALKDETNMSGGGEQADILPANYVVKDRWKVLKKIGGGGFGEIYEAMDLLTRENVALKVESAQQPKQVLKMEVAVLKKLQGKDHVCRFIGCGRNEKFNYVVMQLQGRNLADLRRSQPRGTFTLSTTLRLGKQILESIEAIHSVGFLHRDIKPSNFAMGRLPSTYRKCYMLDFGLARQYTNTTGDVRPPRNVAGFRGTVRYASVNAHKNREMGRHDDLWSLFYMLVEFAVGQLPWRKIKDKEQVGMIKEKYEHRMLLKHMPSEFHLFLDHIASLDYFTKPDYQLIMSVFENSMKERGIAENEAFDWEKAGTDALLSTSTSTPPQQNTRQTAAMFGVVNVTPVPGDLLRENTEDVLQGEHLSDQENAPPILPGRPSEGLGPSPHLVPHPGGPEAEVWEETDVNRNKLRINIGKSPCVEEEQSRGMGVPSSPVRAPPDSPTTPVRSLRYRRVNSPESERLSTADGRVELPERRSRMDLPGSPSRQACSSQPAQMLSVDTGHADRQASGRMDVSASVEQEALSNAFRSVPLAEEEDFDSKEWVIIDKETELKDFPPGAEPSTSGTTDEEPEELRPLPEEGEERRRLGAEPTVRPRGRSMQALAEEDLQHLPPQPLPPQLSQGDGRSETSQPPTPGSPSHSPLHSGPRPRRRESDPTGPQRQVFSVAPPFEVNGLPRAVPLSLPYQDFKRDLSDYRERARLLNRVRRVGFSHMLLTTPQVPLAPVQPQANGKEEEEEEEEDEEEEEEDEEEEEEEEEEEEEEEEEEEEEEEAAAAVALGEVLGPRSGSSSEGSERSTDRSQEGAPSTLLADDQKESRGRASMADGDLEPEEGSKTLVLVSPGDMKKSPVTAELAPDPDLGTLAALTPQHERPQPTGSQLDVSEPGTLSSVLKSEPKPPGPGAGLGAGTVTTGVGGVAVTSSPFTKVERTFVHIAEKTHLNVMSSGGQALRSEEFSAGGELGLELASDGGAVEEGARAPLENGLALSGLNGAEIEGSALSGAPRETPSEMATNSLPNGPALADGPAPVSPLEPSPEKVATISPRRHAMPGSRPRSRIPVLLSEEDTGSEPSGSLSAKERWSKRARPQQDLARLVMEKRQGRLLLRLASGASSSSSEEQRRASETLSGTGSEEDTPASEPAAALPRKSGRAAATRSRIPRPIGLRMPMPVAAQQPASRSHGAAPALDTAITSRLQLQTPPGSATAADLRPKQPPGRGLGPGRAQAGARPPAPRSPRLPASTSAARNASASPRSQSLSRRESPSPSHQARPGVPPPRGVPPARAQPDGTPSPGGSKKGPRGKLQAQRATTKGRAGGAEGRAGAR

Question: Which results are given for C=CC(=O)Nc1cccc(Nc2nc(Nc3ccc(OCCOC)c(F)c3)ncc2F)c1 [Compound 2]?
Answer: inhibition at 3 µM (TTBK1): -1.65%; remaining activity at 3 µM (TTBK1; [1]): 101%; remaining activity at 3 µM (TTBK1; [2]): 102%; inhibition at 3 µM (MINK/MINK1): 0.9%; remaining activity at 3 µM (MINK/MINK1; [1]): 101%; remaining activity at 3 µM (MINK/MINK1; [2]): 97.5%; inhibition at 3 µM (JAK1): 40.6%; remaining activity at 3 µM (JAK1; [1]): 59.7%; remaining activity at 3 µM (JAK1; [2]): 59%; inhibition at 3 µM (GCK/MAP4K2): -0.14%; remaining activity at 3 µM (GCK/MAP4K2; [1]): 100%; remaining activity at 3 µM (GCK/MAP4K2; [2]): 100%; inhibition at 3 µM (GRK2): -4.03%; remaining activity at 3 µM (GRK2; [1]): 104%; remaining activity at 3 µM (GRK2; [2]): 104%
